The values below come from BindingDB's records for doi:10.1016/j.bmcl.2007.12.029 (Merck Research Laboratories, 2008).

The nature of the assay: Antagonist activity at CCR2 receptor in human monocytes assessed as inhibition of MCP1-mediated chemotaxis.

pIC50: −log10 of the molar value.

Take `CC(C)(O)[C@]1(C(=O)NCc2cc(C(F)(F)F)cc(C(F)(F)F)c2)CC[C@@H](N2CCC(c3cncnc3)CC2)C1` [(1S,3R)-N-(3,5-bis(trifluoromethyl)benzyl)-1-(2-hydroxypropan-2-yl)-3-(4-(pyrimidin-5-yl)piperidin-1-yl)cyclopentanecarboxamide]: the pIC50 is 8.70.

For `CC(C)[C@]1(C(=O)NCc2cc(C(F)(F)F)cc(C(F)(F)F)c2)CC[C@@H](N2CCC(c3cncnc3)CC2)C1` [N-(3,5-bis(trifluoromethyl)benzyl)-1-isopropyl-3-(4-(pyrimidin-5-yl)piperidin-1-yl)cyclopentanecarboxamide], the pIC50 is 8.70.

In general, pIC50 refers to the negative decadic logarithm of the IC50, by convention in mol/L.
